According to the supplement of paper PMC4862054:

Legend:
Conditions in all cases: incubation time: 72 h
MDA-MB-436 [1] = assay: drug sensitivity score (DSS), CellTiter-Glo (DSS (AUC-based score)); higher = stronger drug effect (viability inhibition or cytotoxicity); extreme values may be limits of the assay
Summary of the method: (§1)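 Breast cancer cells were seeded into 384-well plates containing compound at 5 concentrations in 10-fold steps over a compound-specific 10,000-fold range and incubated 72 h. After CellTox Green and CellTiter-Glo readings, each plate was normalised to 0.1 % DMSO and a positive kill control. The drug sensitivity score rests on the area under the fitted dose-response curve.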

HCC1143 [2] = assay: as above
Summary of the method: as §1

DU-4475 [3] = assay: as above
Summary of the method: as §1

HCC1599 [4] = assay: as above
Summary of the method: as §1

Hs578T [5] = assay: as above
Summary of the method: as §1

SK-BR-3 [6] = assay: as above
Summary of the method: as §1

MDA-MB-231 [7] = assay: as above
Summary of the method: as §1

CAL-85-1 [8] = assay: as above
Summary of the method: as §1

BT-549 [9] = assay: as above
Summary of the method: as §1

BT-474 [10] = assay: as above
Summary of the method: as §1

MDA-MB-436 [11] = assay: normalised viability (% of control), CellTiter-Blue; higher = more viable cells (about 100 = DMSO control)
Experimental: (§2)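 DSRT, CellTiter-Blue viability, 72 h incubation. Signal is normalised to DMSO and benzethonium chloride controls. Value is the normalised response at dose 3.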

HCC1143 [12] = assay: as above
Experimental: as §2

DU-4475 [13] = assay: as above
Experimental: as §2

MDA-MB-468 = assay: as above
Experimental: as §2

MDA-MB-453 = assay: as above
Experimental: as §2

CAL-120 = assay: as above
Experimental: as §2

HCC1937 = assay: as above
Experimental: as §2

HCC1599 [14] = assay: as above
Experimental: as §2

CAL-148 = assay: as above
Experimental: as §2

Hs578T [15] = assay: as above
Experimental: as §2

HDQ-P1 = assay: as above
Experimental: as §2

CAL-51 = assay: as above
Experimental: as §2

SK-BR-3 [16] = assay: as above
Experimental: as §2

MDA-MB-231 [17] = assay: as above
Experimental: as §2

CAL-85-1 [18] = assay: as above
Experimental: as §2

BT-549 [19] = assay: as above
Experimental: as §2

BT-474 [20] = assay: as above
Experimental: as §2

MFM-223 = assay: as above
Experimental: as §2

SMILES | drug sensitivity score (MDA-MB-436 [1]) | drug sensitivity score (HCC1143 [2]) | drug sensitivity score (DU-4475 [3]) | drug sensitivity score (HCC1599 [4]) | drug sensitivity score (Hs578T [5]) | drug sensitivity score (SK-BR-3 [6]) | drug sensitivity score (MDA-MB-231 [7]) | drug sensitivity score (CAL-85-1 [8]) | drug sensitivity score (BT-549 [9]) | drug sensitivity score (BT-474 [10]) | normalised viability (MDA-MB-436 [11]; 10 nM) [%] | normalised viability (HCC1143 [12]; 10 nM) [%] | normalised viability (DU-4475 [13]; 1 nM) [%] | normalised viability (MDA-MB-468; 10 nM) [%] | normalised viability (MDA-MB-453; 1 nM) [%] | normalised viability (CAL-120; 10 nM) [%] | normalised viability (HCC1937; 10 nM) [%] | normalised viability (HCC1599 [14]; 10 nM) [%] | normalised viability (CAL-148; 1 nM) [%] | normalised viability (Hs578T [15]; 10 nM) [%] | other results
CO[C@H]1C[C@@H]2CC[C@@H](C)[C@@](O)(O2)C(=O)C(=O)N2CCCC[C@H]2C(=O)O[C@H]([C@H](C)C[C@@H]2CC[C@@H](OP(C)(C)=O)[C@H](OC)C2)CC(=O)[C@H](C)/C=C(\C)[C@@H](O)[C@@H](OC)C(=O)[C@H](C)C[C@H](C)/C=C/C=C/C=C/1C [Ridaforolimus] | 4.1 | 8.23 | 4.31 | 0 | 9.58 | 10.4 | 0 | 8.38 | 12.4 | 1.18 | 85.6 | 56.4 | 78.2 | 61.2 | 44.5 | 48.2 | 58.9 | 91.8 | 60.1 | 50.4 | normalised viability (HDQ-P1; 1 nM): 110%; normalised viability (CAL-51; 1 nM): 79%; normalised viability (SK-BR-3 [16]; 10 nM): 48.4%; normalised viability (MDA-MB-231 [17]; 10 nM): 71.9%; normalised viability (CAL-85-1 [18]; 1 nM): 67.4%; normalised viability (BT-549 [19]; 10 nM): 62.4%; normalised viability (BT-474 [20]; 10 nM): 60.7%; normalised viability (MFM-223; 10 nM): 45.2%
Oc1ccc2c(c1)CC[C@H](c1ccccc1)[C@@H]2c1ccc(OCCN2CCCC2)cc1 [Lasofoxifene] | 0 | 0 | 0 | 0 | 0 | 0 | 0 | 0 | 0 | 0 | 85.3 | 90.7 | 98.7 | 87.2 | 108 | 86.9 | 87.2 | 104 | 101 | 84.3 | normalised viability (HDQ-P1; 1 nM): 107%; normalised viability (CAL-51; 1 nM): 95.1%; normalised viability (SK-BR-3 [16]; 10 nM): 83.2%; normalised viability (MDA-MB-231 [17]; 10 nM): 90.1%; normalised viability (CAL-85-1 [18]; 1 nM): 94.4%; normalised viability (BT-549 [19]; 10 nM): 113%; normalised viability (BT-474 [20]; 10 nM): 122%; normalised viability (MFM-223; 10 nM): 82.8%
CC(C)C[C@@H](C(=O)N[C@H](C(=O)OC1CCCC1)c1ccccc1)[C@H](O)C(=O)NO [Tosedostat] | 5.37 | 5.96 | 0 | 0 | 2.74 | 0 | 11.1 | 12.7 | 12.3 | 16.9 | – | – | – | – | – | – | – | – | – | – | normalised viability (MDA-MB-436 [11]; 100 nM): 96.2%; normalised viability (HCC1143 [12]; 100 nM): 89.3%; normalised viability (DU-4475 [13]; 10 nM): 79.7%; normalised viability (MDA-MB-468; 100 nM): 64.6%; normalised viability (MDA-MB-453; 10 nM): 99.1%; normalised viability (CAL-120; 100 nM): 66.8%; normalised viability (HCC1937; 100 nM): 67.9%; normalised viability (HCC1599 [14]; 100 nM): 102%; normalised viability (CAL-148; 10 nM): 91.2%; normalised viability (Hs578T [15]; 100 nM): 94.2%; normalised viability (HDQ-P1; 10 nM): 113%; normalised viability (CAL-51; 10 nM): 101%; normalised viability (SK-BR-3 [16]; 100 nM): 88.7%; normalised viability (MDA-MB-231 [17]; 100 nM): 72.6%; normalised viability (CAL-85-1 [18]; 10 nM): 89.4%; normalised viability (BT-549 [19]; 100 nM): 72.7%; normalised viability (BT-474 [20]; 100 nM): 110%; normalised viability (MFM-223; 100 nM): 79.8%
CN(C)CCOc1ccc(/C(=C(/CCCl)c2ccccc2)c2ccccc2)cc1 [Toremifene] | 0 | 0 | 0 | 0 | 0 | 0 | 0 | 0 | 0 | 1.35 | – | – | – | – | – | – | – | – | – | – | normalised viability (MDA-MB-436 [11]; 100 nM): 110%; normalised viability (HCC1143 [12]; 100 nM): 109%; normalised viability (DU-4475 [13]; 10 nM): 106%; normalised viability (MDA-MB-468; 100 nM): 106%; normalised viability (MDA-MB-453; 10 nM): 118%; normalised viability (CAL-120; 100 nM): 93.7%; normalised viability (HCC1937; 100 nM): 97.5%; normalised viability (HCC1599 [14]; 100 nM): 114%; normalised viability (CAL-148; 10 nM): 108%; normalised viability (Hs578T [15]; 100 nM): 85.4%; normalised viability (HDQ-P1; 10 nM): 129%; normalised viability (CAL-51; 10 nM): 107%; normalised viability (SK-BR-3 [16]; 100 nM): 88.8%; normalised viability (MDA-MB-231 [17]; 100 nM): 94.2%; normalised viability (CAL-85-1 [18]; 10 nM): 100%; normalised viability (BT-549 [19]; 100 nM): 109%; normalised viability (BT-474 [20]; 100 nM): 126%; normalised viability (MFM-223; 100 nM): 99.8%
